Results from ChEMBL document CHEMBL5252541, “Repurposing antipsychotic drugs into antifungal agents: Synergistic combinations of azoles and bromperidol derivatives in the treatment of various fungal infections” (Eur J Med Chem, 2017).
Converted amounts (≈) assume the structure as drawn.

Assays:
[1] = Cytotoxicity against HEK293 cells assessed as cell survival at 16 microg/ml by XTT assay; type: toxicity, cell-based; settings: human, at 16 µg/mL, read-out: Activity
Candida albicans [2] = assay: Antifungal activity against Candida albicans ATCC MYA-2876 measured after 48 hrs by broth microdilution analysis; type: functional
Aspergillus terreus [3] = assay: Antifungal activity against Aspergillus terreus ATCC MYA-3633 measured after 48 hrs by broth microdilution analysis; type: functional
Candida albicans [4] = assay: Additive antifungal activity against Candida albicans ATCC MYA-1237 assessed as fractional inhibitory concentration index measured for 72 hrs in presence of posaconazole; type: functional
Candida albicans [5] = assay: Antifungal activity against Candida albicans ATCC MYA-1003 measured after 48 hrs by broth microdilution analysis; type: functional
[6] = Cytotoxicity against mouse J774.A1 cells assessed as cell survival at 16 microg/ml by XTT assay; type: toxicity, cell-based; settings: at 16 µg/mL, read-out: Activity
BEAS-2B = assay: Cytotoxicity against human BEAS-2B cells assessed as cell survival up to 4 microg/ml by XTT assay; type: toxicity, cell-based; settings: dose < 4 µg/ml
Candida albicans [7] = assay: Antifungal activity against Candida albicans ATCC 64124 measured after 48 hrs by broth microdilution analysis; type: functional
Nakaseomyces glabratus [8] = assay: Antifungal activity against Candida glabrata ATCC 2001 measured after 48 hrs by broth microdilution analysis; type: functional
Candida albicans [9] = assay: Synergistic antifungal activity against Candida albicans ATCC MYA-2876 assessed as posaconazole MIC measured after 48 hrs by checkboard based microplate reader analysis; type: functional
Candida albicans [10] = assay: Synergistic antifungal activity against Candida albicans ATCC MYA-2310 assessed as posaconazole MIC measured after 48 hrs by checkboard based microplate reader analysis; type: functional
Candida albicans [11] = assay: Synergistic antifungal activity against Candida albicans ATCC MYA-1237 assessed as posaconazole MIC measured after 48 hrs by checkboard based microplate reader analysis; type: functional
Candida albicans [12] = assay: Antifungal activity against Candida albicans ATCC MYA-1237 measured after 48 hrs by broth microdilution analysis; type: functional
Candida albicans [13] = assay: Synergistic antifungal activity against Candida albicans ATCC 90819 assessed as posaconazole MIC measured after 48 hrs by checkboard based microplate reader analysis; type: functional
[14] = Cytotoxicity against mouse J774.A1 cells assessed as cell survival by XTT assay; type: toxicity, cell-based; settings: read-out: Activity
HEK293 [15] = assay: Cytotoxicity against HEK293 cells assessed as cell survival up to 4 microg/ml by XTT assay; type: toxicity, cell-based; settings: human, dose < 4 µg/ml
Candida albicans [16] = assay: Synergistic antifungal activity against Candida albicans ATCC 10231 assessed as posaconazole MIC measured after 48 hrs by checkboard based microplate reader analysis; type: functional
[17] = Cytotoxicity against HEK293 cells assessed as cell survival by XTT assay; type: toxicity, cell-based; settings: human, read-out: Activity
HEK293 [18] = assay: Cytotoxicity against HEK293 cells assessed as cell survival at 8 microg/ml by XTT assay; type: toxicity, cell-based; settings: human, dose 8 µg/ml
Aspergillus terreus [19] = assay: Synergistic antifungal activity against Aspergillus terreus ATCC MYA-3633 assessed as posaconazole MIC measured after 48 hrs by checkboard based microplate reader analysis; type: functional
Candida albicans [20] = assay: Synergistic antifungal activity against Candida albicans ATCC MYA-1003 assessed as posaconazole MIC measured after 48 hrs by checkboard based microplate reader analysis; type: functional
Candida albicans [21] = assay: Synergistic antifungal activity against Candida albicans ATCC 64124 assessed as posaconazole MIC measured after 48 hrs by checkboard based microplate reader analysis; type: functional
[22] = Cytotoxicity against mouse J774.A1 cells assessed as cell survival at 8 microg/ml by XTT assay; type: toxicity, cell-based; settings: J774.A1 cells, at 8 µg/mL, read-out: Activity
Candida albicans [23] = assay: Antifungal activity against Candida albicans ATCC 90819 measured after 48 hrs by broth microdilution analysis; type: functional
[24] = Cytotoxicity against human BEAS-2B cells assessed as cell survival by XTT assay; type: toxicity, cell-based; settings: read-out: Activity
Candida albicans [25] = assay: Antifungal activity against Candida albicans ATCC 10231 measured after 48 hrs by broth microdilution analysis; type: functional
Nakaseomyces glabratus [26] = assay: Synergistic antifungal activity against Candida glabrata ATCC 2001 assessed as posaconazole MIC measured after 48 hrs by checkboard based microplate reader analysis; type: functional
J774.A1 = assay: Cytotoxicity against mouse J774.A1 cells assessed as cell survival up to 4 microg/ml by XTT assay; type: toxicity, cell-based; settings: dose < 4 µg/ml
Candida albicans [27] = assay: Synergistic antifungal activity against Candida albicans ATCC 64124 assessed as compound MIC measured after 48 hrs in presence of posaconazole by checkboard based microplate reader analysis; type: functional
Candida albicans [28] = assay: Synergistic antifungal activity against Candida albicans ATCC 10231 assessed as compound MIC measured after 48 hrs in presence of ketoconazole by checkboard based microplate reader analysis; type: functional
Candida albicans [29] = assay: Synergistic antifungal activity against Candida albicans ATCC 10231 assessed as compound MIC measured after 48 hrs in presence of posaconazole by checkboard based microplate reader analysis; type: functional
Candida albicans [30] = assay: Additive antifungal activity against Candida albicans ATCC 10231 assessed as fractional inhibitory concentration index measured for 72 hrs in presence of itraconazole; type: functional
Candida albicans [31] = assay: Synergistic antifungal activity against Candida albicans ATCC 64124 assessed as compound MIC measured after 48 hrs in presence of voriconazole by checkboard based microplate reader analysis; type: functional
Candida albicans [32] = assay: Additive antifungal activity against Candida albicans ATCC MYA-2876 assessed as fractional inhibitory concentration index measured for 72 hrs in presence of voriconazole; type: functional
Candida albicans [33] = assay: Additive antifungal activity against Candida albicans ATCC 10231 assessed as fractional inhibitory concentration index measured for 72 hrs in presence of fluconazole; type: functional
Candida albicans [34] = assay: Synergistic antifungal activity against Candida albicans ATCC 10231 assessed as compound MIC measured after 48 hrs in presence of fluconazole by checkboard based microplate reader analysis; type: functional
Candida albicans [35] = assay: Additive antifungal activity against Candida albicans ATCC MYA-2310 assessed as fractional inhibitory concentration index measured for 72 hrs in presence of voriconazole; type: functional
Aspergillus terreus [36] = assay: Additive antifungal activity against Aspergillus terreus ATCC MYA-3633 assessed as fractional inhibitory concentration index measured for 72 hrs in presence of voriconazole; type: functional
Candida albicans [37] = assay: Additive antifungal activity against Candida albicans ATCC 64124 assessed as fractional inhibitory concentration index measured for 72 hrs in presence of fluconazole; type: functional
Candida albicans [38] = assay: Additive antifungal activity against Candida albicans ATCC 90819 assessed as fractional inhibitory concentration index measured for 72 hrs in presence of voriconazole; type: functional
Candida albicans [39] = assay: Synergistic antifungal activity against Candida albicans ATCC 64124 assessed as fractional inhibitory concentration index measured for 72 hrs in presence of posaconazole; type: functional
Candida albicans [40] = assay: Additive antifungal activity against Candida albicans ATCC 10231 assessed as fractional inhibitory concentration index measured for 72 hrs in presence of ketoconazole; type: functional
Candida albicans [41] = assay: Synergistic antifungal activity against Candida albicans ATCC 64124 assessed as compound MIC measured after 48 hrs in presence of ketoconazole by checkboard based microplate reader analysis; type: functional
Nakaseomyces glabratus [42] = assay: Additive antifungal activity against Candida glabrata ATCC 2001 assessed as fractional inhibitory concentration index measured for 72 hrs in presence of voriconazole; type: functional
Candida albicans [43] = assay: Additive antifungal activity against Candida albicans ATCC MYA-2310 assessed as fractional inhibitory concentration index measured for 72 hrs in presence of posaconazole; type: functional
Nakaseomyces glabratus [44] = assay: Synergistic antifungal activity against Candida glabrata ATCC 2001 assessed as fractional inhibitory concentration index measured for 72 hrs in presence of posaconazole; type: functional
Candida albicans [45] = assay: Synergistic antifungal activity against Candida albicans ATCC 64124 assessed as compound MIC measured after 48 hrs in presence of fluconazole by checkboard based microplate reader analysis; type: functional
Nakaseomyces glabratus [46] = assay: Additive antifungal activity against Candida glabrata ATCC 2001 assessed as fractional inhibitory concentration index measured for 72 hrs in presence of posaconazole; type: functional
Candida albicans [47] = assay: Additive antifungal activity against Candida albicans ATCC 64124 assessed as fractional inhibitory concentration index measured for 72 hrs in presence of voriconazole; type: functional
Candida albicans [48] = assay: Partial synergistic antifungal activity against Candida albicans ATCC 10231 assessed as fractional inhibitory concentration index measured for 72 hrs in presence of voriconazole; type: functional
Candida albicans [49] = assay: Potency index, ratio of fluconazole MIC to test compound MIC for antifungal activity against Candida albicans ATCC 10231 measured after 48 hrs by broth microdilution analysis; type: functional
Candida albicans [50] = assay: Additive antifungal activity against Candida albicans ATCC 64124 assessed as fractional inhibitory concentration index measured for 72 hrs in presence of ketoconazole; type: functional
Candida albicans [51] = assay: Synergistic antifungal activity against Candida albicans ATCC 64124 assessed as compound MIC measured after 48 hrs in presence of itraconazole by checkboard based microplate reader analysis; type: functional
Candida albicans [52] = assay: Synergistic antifungal activity against Candida albicans ATCC 10231 assessed as compound MIC measured after 48 hrs in presence of itraconazole by checkboard based microplate reader analysis; type: functional
Candida albicans [53] = assay: Additive antifungal activity against Candida albicans ATCC 90819 assessed as fractional inhibitory concentration index measured for 72 hrs in presence of posaconazole; type: functional
Candida albicans [54] = assay: Additive antifungal activity against Candida albicans ATCC MYA-2876 assessed as fractional inhibitory concentration index measured for 72 hrs in presence of posaconazole; type: functional
Candida albicans [55] = assay: Synergistic antifungal activity against Candida albicans ATCC 10231 assessed as compound MIC measured after 48 hrs in presence of voriconazole by checkboard based microplate reader analysis; type: functional
Candida albicans [56] = assay: Additive antifungal activity against Candida albicans ATCC 64124 assessed as fractional inhibitory concentration index measured for 72 hrs in presence of itraconazole; type: functional
Candida albicans [57] = assay: Additive antifungal activity against Candida albicans MYA-1003 assessed as fractional inhibitory concentration index measured for 72 hrs in presence of voriconazole
Candida albicans [58] = assay: Additive antifungal activity against Candida albicans ATCC MYA-1237 assessed as fractional inhibitory concentration index measured for 72 hrs in presence of voriconazole; type: functional
Candida albicans [59] = assay: Antifungal activity against Candida albicans ATCC MYA-2310 measured after 48 hrs by broth microdilution analysis; type: functional

CC[C@@H]([C@H](C)O)n1ncn(-c2ccc(N3CCN(c4ccc(OC[C@@H]5CO[C@@](Cn6cncn6)(c6ccc(F)cc6F)C5)cc4)CC3)cc2)c1=O [POSACONAZOLE]
viability at 16 microg/ml [1]: 45%
MIC (Candida albicans [2]): > 32 µg/mL
MIC (Aspergillus terreus [3]): 0.25 µg/mL (≈ 0.357 µM)
fractional inhibitory concentration index (FICI) (Candida albicans [4]): 2
MIC (Candida albicans [5]): > 32 µg/mL
viability at 16 microg/ml [6]: 46%
Activity (BEAS-2B): Non-Toxic
MIC (Candida albicans [7]): > 32 µg/mL
MIC (Nakaseomyces glabratus [8]): > 32 µg/mL
MIC (Candida albicans [9]): > 32 µg/mL
MIC (Candida albicans [10]): 0.5 µg/mL
MIC (Candida albicans [11]): 0.5 µg/mL
MIC (Candida albicans [12]): > 32 µg/mL
MIC (Candida albicans [13]): 0.25 µg/mL
viability [14]: > 100%
Activity (HEK293 [15]): Non-Toxic
MIC (Candida albicans [16]): 0.125 µg/mL
viability [17]: > 100%
Activity (HEK293 [18]): Non-Toxic
MIC (Aspergillus terreus [19]): 0.25 µg/mL
MIC (Candida albicans [20]): 0.5 µg/mL
MIC (Candida albicans [21]): 2 µg/mL
viability at 8 microg/ml [22]: 80%
MIC (Candida albicans [23]): > 32 µg/mL
viability [24]: > 100%
MIC (Candida albicans [25]): 1 µg/mL (≈ 1.43 µM)
MIC (Nakaseomyces glabratus [26]): 0.25 µg/mL
Activity (J774.A1): Non-Toxic

COc1ccc(C(=O)CCCN2CCC(O)(c3ccc(Br)cc3)CC2)cc1
MIC (Candida albicans [27]): 8 µg/mL
MIC (Candida albicans [28]): > 128 µg/mL
MIC (Candida albicans [2]): > 128 µg/mL
MIC (Candida albicans [29]): > 128 µg/mL
MIC (Aspergillus terreus [3]): > 128 µg/mL
fractional inhibitory concentration index (FICI) (Candida albicans [30]): 2
MIC (Candida albicans [31]): 128 µg/mL
fractional inhibitory concentration index (FICI) (Candida albicans [4]): 2
MIC (Candida albicans [5]): > 128 µg/mL
fractional inhibitory concentration index (FICI) (Candida albicans [32]): 2
fractional inhibitory concentration index (FICI) (Candida albicans [33]): 2
MIC (Candida albicans [7]): > 128 µg/mL
MIC (Candida albicans [34]): > 128 µg/mL
MIC (Nakaseomyces glabratus [8]): > 128 µg/mL
fractional inhibitory concentration index (FICI) (Candida albicans [35]): 2
fractional inhibitory concentration index (FICI) (Aspergillus terreus [36]): 2
fractional inhibitory concentration index (FICI) (Candida albicans [37]): 2
fractional inhibitory concentration index (FICI) (Candida albicans [38]): 2
MIC (Candida albicans [12]): > 128 µg/mL
fractional inhibitory concentration index (FICI) (Candida albicans [39]): 0.13
fractional inhibitory concentration index (FICI) (Candida albicans [40]): 2
MIC (Candida albicans [41]): 64 µg/mL
fractional inhibitory concentration index (FICI) (Nakaseomyces glabratus [42]): 2
fractional inhibitory concentration index (FICI) (Candida albicans [43]): 2
fractional inhibitory concentration index (FICI) (Nakaseomyces glabratus [44]): 0.51
MIC (Candida albicans [45]): > 128 µg/mL
fractional inhibitory concentration index (FICI) (Nakaseomyces glabratus [46]): 0.5
fractional inhibitory concentration index (FICI) (Candida albicans [47]): 1.25
fractional inhibitory concentration index (FICI) (Candida albicans [48]): 0.75
Ratio (Candida albicans [49]): 16
fractional inhibitory concentration index (FICI) (Candida albicans [50]): 1
MIC (Candida albicans [51]): > 128 µg/mL
MIC (Candida albicans [52]): > 128 µg/mL
fractional inhibitory concentration index (FICI) (Candida albicans [53]): 2
fractional inhibitory concentration index (FICI) (Candida albicans [54]): 2
MIC (Candida albicans [55]): 32 µg/mL
fractional inhibitory concentration index (FICI) (Candida albicans [56]): 2
fractional inhibitory concentration index (FICI) (Candida albicans [57]): 2
MIC (Candida albicans [23]): > 128 µg/mL
MIC (Candida albicans [25]): > 128 µg/mL
fractional inhibitory concentration index (FICI) (Candida albicans [58]): 2
MIC (Candida albicans [59]): > 128 µg/mL
